The supplement of paper PMC10307832

Assays:
Experiment in all cases: relative viability (nuclei count vs DMSO), 5 days (fraction); higher = more cells survive
[1] = compound: CC1=C(CC(=O)O)c2cc(F)ccc2/C1=C\c1ccc([S+](C)[O-])cc1 [Sulindac] + Cc1nc(Nc2ncc(C(=O)Nc3c(C)cccc3Cl)s2)cc(N2CCN(CCO)CC2)n1 [Dasatinib] (partner 0.075 µM)
In short: (§1)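 Medians of duplicate plates are given as relative viability. That measure is the nuclei count in treated wells divided by the count in vehicle wells. Counts were taken on 4× images of lung cancer cell lines in 1536-well plates, 5 days after pin-tool dosing the day after seeding with one drug alone or a fixed anchor-drug dose plus five library-drug doses (not always all listed) in √10 steps.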

[2] = compound: CN[C@@H]1C[C@H]2O[C@@](C)([C@@H]1OC)n1c3ccccc3c3c4c(c5c6ccccc6n2c5c31)C(=O)NC4 [Staurosporine] + NC(=O)Nc1cc(-c2cccc(F)c2)sc1C(=O)N[C@H]1CCCNC1 [AZD7762] (partner 0.2 µM)
In short: as §1

[3] = compound: CN[C@@H]1C[C@H]2O[C@@](C)([C@@H]1OC)n1c3ccccc3c3c4c(c5c6ccccc6n2c5c31)C(=O)NC4 [Staurosporine] + COc1cccc2cc(-c3nc([C@H]4CC[C@H](C(=O)O)CC4)n4ncnc(N)c34)[nH]c12 [OSI-027] (partner 0.5 µM)
In short: as §1

[4] = compound: CC1=C(CC(=O)O)c2cc(F)ccc2/C1=C\c1ccc([S+](C)[O-])cc1 [Sulindac] + CC(=O)c1c(C)c2cnc(Nc3ccc(N4CCNCC4)cn3)nc2n(C2CCCC2)c1=O [Palbociclib] (partner 0.5 µM)
In short: as §1

| Cell Line | relative viability ([1]; first compound 0.08 µM) | relative viability ([1]; first compound 0.253 µM) | relative viability ([1]; first compound 0.8 µM) | relative viability ([1]; first compound 2.53 µM) | relative viability ([1]; first compound 8 µM) | relative viability ([2]; first compound 0.005 µM) | relative viability ([2]; first compound 0.01581 µM) | relative viability ([2]; first compound 0.05 µM) | relative viability ([2]; first compound 0.1581 µM) | relative viability ([2]; first compound 0.5 µM) | relative viability ([3]; first compound 0.005 µM) | relative viability ([3]; first compound 0.01581 µM) | relative viability ([3]; first compound 0.05 µM) | relative viability ([3]; first compound 0.1581 µM) | relative viability ([3]; first compound 0.5 µM) | relative viability ([4]; first compound 0.08 µM) | relative viability ([4]; first compound 0.253 µM) | relative viability ([4]; first compound 0.8 µM) | relative viability ([4]; first compound 2.53 µM) | relative viability ([4]; first compound 8 µM) |
| --- | --- | --- | --- | --- | --- | --- | --- | --- | --- | --- | --- | --- | --- | --- | --- | --- | --- | --- | --- | --- |
| NCI-H647 | 0.257 | 0.201 | 0.126 | 0.194 | 0.247 | 0.296 | 0.102 | 0.121 | 0.0587 | 0.05 | 0.29 | 0.123 | 0.149 | 0.0899 | 0.0651 | 0.462 | 0.469 | 0.339 | 0.431 | 0.439 |
| NCI-H650 | 0.52 | 0.462 | 0.469 | 0.466 | 0.47 | 0.432 | 0.304 | 0.273 | 0.227 | 0.306 | 0.34 | 0.271 | 0.257 | 0.277 | 0.255 | 0.313 | 0.347 | 0.32 | 0.28 | 0.402 |
| NCI-H727 | 0.345 | 0.333 |  | 0.394 | 0.412 | 0.622 | 0.412 | 0.55 | 0.466 | 0.461 | 0.422 | 0.289 | 0.301 | 0.291 | 0.225 | 0.621 | 0.643 | 0.566 | 0.627 | 0.667 |
| NCI-H838 | 0.275 | 0.334 | 0.311 | 0.281 | 0.34 | 0.776 | 0.644 | 0.643 | 0.693 | 0.675 | 0.207 | 0.153 | 0.196 | 0.162 |  | 0.262 | 0.234 | 0.195 | 0.226 | 0.223 |
| NCI-H1355 | 0.872 | 0.756 |  | 0.643 | 0.795 | 0.713 | 0.294 | 0.237 | 0.214 | 0.148 | 0.332 | 0.15 | 0.192 | 0.157 | 0.143 | 0.335 | 0.43 | 0.327 | 0.395 | 0.379 |
| NCI-H1395 | 0.379 | 0.406 | 0.613 | 0.368 | 0.485 | 0.38 | 0.305 | 0.34 | 0.303 | 0.302 | 0.605 | 0.395 | 0.42 | 0.249 | 0.239 | 0.545 | 0.563 | 0.708 | 0.627 | 0.728 |
| NCI-H1437 | 0.405 | 0.462 | 0.293 | 0.399 | 0.444 | 1.02 | 0.686 | 0.78 | 0.574 | 0.219 | 0.744 |  | 0.587 | 0.183 | 0.181 | 0.358 | 0.296 | 0.294 | 0.314 | 0.333 |
| NCI-H1651 | 0.475 | 0.539 |  | 0.419 | 0.777 | 0.522 | 0.352 | 0.295 | 0.219 | 0.195 | 0.523 | 0.396 | 0.304 | 0.114 | 0.129 | 0.493 | 0.471 | 0.483 | 0.554 | 0.578 |
